Results: patent publication US20160120877A1, “PHARMACEUTICAL COMPOSITIONS FOR SUSTAINED DELIVERY OF BENZODIAZEPINE ANTAGONISTS” (priority 2010, published 2016)

Tests used:
[1] = Dialysis diffusion: effect of sample size; type: physicochemical
Description: (§1) Dialysis tubing cellulose membrane was cut into approximately 8 cm lengths, washed with hot water for 3 hours. Tubing was then treated with 0.3% (w/v) solution of sodium sulfide at 80° C. for 1 minute, washed with hot water (60° C.) for 2 minutes and followed by acidification with 0.2% sulfuric acid. Tubing was then rinsed with hot water to remove the acid. Test formulations were added, the tubing closed with nylon closures and placed in the dialysate. At various time periods, the dialysate was sampled and the flumazenil released measured by HPLC assay.
Experiments were conducted to test the influence of sample size on diffusion rate.
(§2) As described in 1.1 with 600 ml of phosphate buffer pH 4.0 as dialysate.
A=0.125 g of a 3% flumazenil solution in NMP
B=0.250 g of a 3% flumazenil solution in NMP
C=0.500 g of a 3% flumazenil solution in NMP

methamphetamine cravings = conditions: clinical trials, along with hydroxyzine and gabapentin; cited from earlier work
[2] = Dialysis diffusion: effect of dialysate volume; type: physicochemical; conditions: 0.25 g of 3% solution in NMP
Description: Dissolution apparatus: Vankel VK 7000 (Agilent Technologies Australia)
Dialysis bags: dialysis tubing cellulose membrane from Sigma-Aldrich Australia—average flat width 25 mm, average diameter 16 mm (when full), retains >90% of cytocrome C (M.W. 12.400) in solution over a 10 hrs period.
as §1
Chromatography column: C18-250 mm×4.6 mm×5 μm (Sigma Aldrich Australia)
Mobile phase: H2O pH 2:methanol:tetrahydrofuran (80:13:7)
Injection volume: 10 μl and 100 μl
Experiments were conducted to check the influence of the volume of the dialysis medium (dialysate) on diffusion rate.
A=800 ml of phosphate buffer pH 4.0
B=600 ml of phosphate buffer pH 4.0
0.25 g of 3% flumazenil solution in N-Methyl-2-Pyrrolidinone (NMP)

[3] = Dialysis diffusion: effect of concentration and sample size (same quantity of flumazenil); type: physicochemical; conditions: sample A1 (0.25 g of 1.5% solution in NMP), 1 h
Description: as §1
Experiments were conducted to test the effect of different concentrations and different sample sizes (but same quantity of flumazenil) on diffusion rate.
as §2
A=0.25 g of a 1.5% flumazenil solution in NMP
B=0.125 g of a 3% flumazenil solution in NMP
C=0.083 g of a 4.5% flumazenil solution in NMP

% flumazenil released ([1]; sample A1 (0.125 g of 3% solution in NMP), 1 h): 85.8% | % flumazenil released ([1]; sample A1 (0.125 g of 3% solution in NMP), 2 h): 94.9% | % flumazenil released ([1]; sample A1 (0.125 g of 3% solution in NMP), 4 h): 100.1% | % flumazenil released ([1]; sample A1 (0.125 g of 3% solution in NMP), 6 h): 101.8% | % flumazenil released ([1]; sample A1 (0.125 g of 3% solution in NMP), 24 h): 101.6% | % flumazenil released ([1]; sample A2 (0.125 g of 3% solution in NMP), 1 h): 77.9% | % flumazenil released ([1]; sample A2 (0.125 g of 3% solution in NMP), 2 h): 90.8% | % flumazenil released ([1]; sample A2 (0.125 g of 3% solution in NMP), 4 h): 99.1% | % flumazenil released ([1]; sample A2 (0.125 g of 3% solution in NMP), 6 h): 101.3% | % flumazenil released ([1]; sample A2 (0.125 g of 3% solution in NMP), 24 h): 102.0% | % flumazenil released ([1]; sample B1 (0.250 g of 3% solution in NMP), 1 h): 50.9% | % flumazenil released ([1]; sample B1 (0.250 g of 3% solution in NMP), 2 h): 64.7% | % flumazenil released ([1]; sample B1 (0.250 g of 3% solution in NMP), 4 h): 87.0% | % flumazenil released ([1]; sample B1 (0.250 g of 3% solution in NMP), 6 h): 96.3% | % flumazenil released ([1]; sample B1 (0.250 g of 3% solution in NMP), 24 h): 101.3% | % flumazenil released ([1]; sample B2 (0.250 g of 3% solution in NMP), 1 h): 50.9% | % flumazenil released ([1]; sample B2 (0.250 g of 3% solution in NMP), 2 h): 65.2% | % flumazenil released ([1]; sample B2 (0.250 g of 3% solution in NMP), 4 h): 87.6% | % flumazenil released ([1]; sample B2 (0.250 g of 3% solution in NMP), 6 h): 97.8% | % flumazenil released ([1]; sample B2 (0.250 g of 3% solution in NMP), 24 h): 101.3% | % flumazenil released ([1]; sample C1 (0.500 g of 3% solution in NMP), 1 h): 36.6% | % flumazenil released ([1]; sample C1 (0.500 g of 3% solution in NMP), 2 h): 45.5% | % flumazenil released ([1]; sample C1 (0.500 g of 3% solution in NMP), 4 h): 59.3% | % flumazenil released ([1]; sample C1 (0.500 g of 3% solution in NMP), 6 h): 70.4% | % flumazenil released ([1]; sample C1 (0.500 g of 3% solution in NMP), 24 h): 100.8% | % flumazenil released ([1]; sample C2 (0.500 g of 3% solution in NMP), 1 h): 46.5% | % flumazenil released ([1]; sample C2 (0.500 g of 3% solution in NMP), 2 h): 56.0% | % flumazenil released ([1]; sample C2 (0.500 g of 3% solution in NMP), 4 h): 71.1% | % flumazenil released ([1]; sample C2 (0.500 g of 3% solution in NMP), 6 h): 83.1% | % flumazenil released ([1]; sample C2 (0.500 g of 3% solution in NMP), 24 h): 101.0% | % flumazenil released ([2]; A1 (800 ml dialysate pH 4.0), 1 h): 57.6% | % flumazenil released ([2]; A1 (800 ml dialysate pH 4.0), 2 h): 73.1% | % flumazenil released ([2]; A1 (800 ml dialysate pH 4.0), 4 h): 94.5% | % flumazenil released ([2]; A1 (800 ml dialysate pH 4.0), 6 h): 100.9% | % flumazenil released ([2]; A1 (800 ml dialysate pH 4.0), 24 h): 100.7% | % flumazenil released ([2]; A2 (800 ml dialysate pH 4.0), 1 h): 50.3% | % flumazenil released ([2]; A2 (800 ml dialysate pH 4.0), 2 h): 66.0% | % flumazenil released ([2]; A2 (800 ml dialysate pH 4.0), 4 h): 88.6% | % flumazenil released ([2]; A2 (800 ml dialysate pH 4.0), 6 h): 98.9% | % flumazenil released ([2]; A2 (800 ml dialysate pH 4.0), 24 h): 101.7% | % flumazenil released ([2]; B1 (600 ml dialysate pH 4.0), 1 h): 52.2% | % flumazenil released ([2]; B1 (600 ml dialysate pH 4.0), 2 h): 69.2% | % flumazenil released ([2]; B1 (600 ml dialysate pH 4.0), 4 h): 92.7% | % flumazenil released ([2]; B1 (600 ml dialysate pH 4.0), 6 h): 99.2% | % flumazenil released ([2]; B1 (600 ml dialysate pH 4.0), 24 h): 100.64% | % flumazenil released ([2]; B2 (600 ml dialysate pH 4.0), 1 h): 50.5% | % flumazenil released ([2]; B2 (600 ml dialysate pH 4.0), 2 h): 66.5% | % flumazenil released ([2]; B2 (600 ml dialysate pH 4.0), 4 h): 89.2% | % flumazenil released ([2]; B2 (600 ml dialysate pH 4.0), 6 h): 98.0% | % flumazenil released ([2]; B2 (600 ml dialysate pH 4.0), 24 h): 99.2% | time to reach equilibrium ([2]; dialysate A (800 ml)): around 6 hours | time to reach equilibrium ([2]; dialysate B (600 ml)): around 6 hours | % flumazenil released [3]: 91.0%
Structure (SMILES): CCOC(=O)c1ncn2c1CN(C)C(=O)c1cc(F)ccc1-2 [flumazenil, ethyl 8-fluoro-5,6-dihydro-5-methyl-6-oxo-4H-imidazo[1,5-a](1,4)benzodiazepine-3-carboxylate]
methamphetamine cravings (methamphetamine cravings): substantially reduce methamphetamine cravings
